For orientation: pKi means −log10 of the Ki, conventionally taken in molar units. The low end stands for a high Ki, the high end for a low Ki.

Here are results for 16 molecules from ChEMBL document CHEMBL1268942, “Novel selective anti-androgens with a diphenylpentane skeleton” (Bioorg Med Chem Lett, 2010).

The target in one data set is T1, Androgen receptor (Homo sapiens, UniProt P10275).
T1 sequence (P10275 whole entry): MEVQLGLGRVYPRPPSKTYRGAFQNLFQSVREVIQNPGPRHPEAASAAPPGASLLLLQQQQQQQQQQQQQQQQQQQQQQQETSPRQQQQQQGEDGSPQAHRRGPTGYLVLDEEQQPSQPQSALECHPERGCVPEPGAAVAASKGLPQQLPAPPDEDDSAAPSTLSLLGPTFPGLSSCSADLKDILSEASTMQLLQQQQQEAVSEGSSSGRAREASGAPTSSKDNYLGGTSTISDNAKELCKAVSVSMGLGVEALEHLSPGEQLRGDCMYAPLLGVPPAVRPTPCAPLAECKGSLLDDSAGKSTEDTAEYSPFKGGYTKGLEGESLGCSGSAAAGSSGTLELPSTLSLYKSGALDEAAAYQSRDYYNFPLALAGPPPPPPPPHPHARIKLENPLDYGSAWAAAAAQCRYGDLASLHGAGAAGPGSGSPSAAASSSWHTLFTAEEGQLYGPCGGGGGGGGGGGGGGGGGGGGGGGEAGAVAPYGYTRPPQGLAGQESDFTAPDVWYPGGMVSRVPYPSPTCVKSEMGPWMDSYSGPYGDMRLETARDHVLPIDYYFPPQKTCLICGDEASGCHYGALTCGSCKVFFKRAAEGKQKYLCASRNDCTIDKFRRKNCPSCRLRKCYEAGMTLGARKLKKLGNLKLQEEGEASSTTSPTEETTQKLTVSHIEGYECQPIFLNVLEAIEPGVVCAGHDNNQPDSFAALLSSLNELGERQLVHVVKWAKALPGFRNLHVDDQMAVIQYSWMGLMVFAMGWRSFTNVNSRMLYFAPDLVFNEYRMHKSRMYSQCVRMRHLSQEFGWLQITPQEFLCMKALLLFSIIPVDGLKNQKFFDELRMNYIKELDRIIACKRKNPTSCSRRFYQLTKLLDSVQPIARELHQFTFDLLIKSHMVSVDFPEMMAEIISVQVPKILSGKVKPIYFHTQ
As to the kind of experiment: Binding affinity to androgen receptor.

Data set [1] is described as follows: Toxicity in androgen-dependent mouse SC3 cells at 30 uM. In kind it is cell-based. The settings on record: sc-3, 30 µM.
For another data set, the system named is HL-60. Description: Selectivity index, ratio of EC50 for Vitamin-D activity at VDR receptor in human HL60 cells to EC50 for antiandrogen activity against androgen receptor in androgen-dependent mouse SC3 cells. The data set is classed as cell-based.

pKi: −log10 of the molar value.

`CCC(CC)(c1ccc(OC[C@H](O)CO)c(C)c1)c1ccc(OC[C@H](O)C(C)(C)C)c(C)c1` gave a pKi at Androgen receptor of 6.00.
For the molecule `CCC(CC)(c1ccc(OCC(O)C(C)(C)CCCCc2ccccc2)c(C)c1)c1ccc(OC[C@@H](O)CO)c(C)c1` (stereo partly drawn), the Activity result in data set [1] was “Toxic”.
Turning to `CCC(CC)(c1ccc(OCC(=O)C(C)(C)Cc2ccccc2)c(C)c1)c1ccc(OC[C@@H](O)CO)c(C)c1`, the Ratio EC50 in the data set with HL-60 is < 2.1. Besides, the Activity result in data set [1] was “Toxic”.
Turning to `CCC(CC)(c1ccc(OC[C@@H](O)CO)c(C)c1)c1ccc(O[C@@H]2CN(Cc3ccccc3)C[C@@H]2O)c(C)c1`, in data set [1], the Activity entry is reported as “Toxic”.
`CCC(CC)(c1ccc(OC[C@@H](O)CO)c(C)c1)c1ccc(OC[C@H](O)C(C)(C)C)c(C)c1`: the pKi on Androgen receptor is 6.00.
With `CCC(CC)(c1ccc(OCC(O)C(C)(C)Cc2ccc3ccccc3c2)c(C)c1)c1ccc(OC[C@@H](O)CO)c(C)c1` (stereo partly drawn), in data set [1], the Activity result was “Toxic”.
Consider `CCC(CC)(c1ccc(OCC(=O)C(C)(C)C)c(C)c1)c1ccc(OC[C@@H](O)CO)c(C)c1`, for which the pKi at Androgen receptor is 5.74.
For `CCC(CC)(c1ccc(OCC(O)C(C)(C)Cc2ccccc2)c(C)c1)c1ccc(OC[C@@H](O)CO)c(C)c1` (stereo partly drawn), the Ratio EC50 with HL-60 came out at 6.5.
Take `CCC(CC)(c1ccc(OCC(=O)C(C)(C)C)c(C)c1)c1ccc(OC[C@H](O)CO)c(C)c1`: the pKi on Androgen receptor is 5.96.
Turning to `CCC(CC)(c1ccc(OCC(=O)C(C)(C)CCCc2ccccc2)c(C)c1)c1ccc(OC[C@@H](O)CO)c(C)c1`, in the data set with HL-60, the Ratio EC50 is > 3.1.
At Androgen receptor, `CCC(CC)(c1ccc(OC[C@H](O)CO)c(C)c1)c1ccc(OC[C@@H](O)C(C)(C)C)c(C)c1` gave a negative-log Ki (pKi) of 5.96.
With `CCC(CC)(c1ccc(OC[C@@H](O)CO)c(C)c1)c1ccc(OC[C@@H](O)C(C)(C)C)c(C)c1`, the pKi at Androgen receptor was 5.96.
Take `CCC(CC)(c1ccc(OCC(=O)C(C)(C)CCc2ccccc2)c(C)c1)c1ccc(OC[C@@H](O)CO)c(C)c1`: the Ratio EC50 in the data set on HL-60 stood at 21.
Take `CCC(CC)(c1ccc(OCC(O)C(C)(C)CCc2ccccc2)c(C)c1)c1ccc(OC[C@@H](O)CO)c(C)c1` (stereo partly drawn): the Ratio EC50 in the data set on HL-60 is 8.1.
As to `CCC(CC)(c1ccc(OCC(O)C(C)(C)CCCc2ccccc2)c(C)c1)c1ccc(OC[C@@H](O)CO)c(C)c1` (stereo partly drawn), in the data set with HL-60, the Ratio EC50 is 28.
In the case of `CCC(CC)(c1ccc(OCC(O)C23CC4CC(CC(C4)C2)C3)c(C)c1)c1ccc(OC[C@@H](O)CO)c(C)c1` (stereo partly drawn), the Ratio EC50 with HL-60 was < 2.2. In addition, the Activity entry in data set [1] was “Toxic”.
